Test systems include EKVX NSCLC; HCT-116 colon; HOP-62 NSCLC; KM12 colon; MOLT-4 leukemia; SK-MEL-2 melanoma; SK-OV-3 ovarian; SNB-19 CNS; SR leukemia; HOP-92 NSCLC.
Test in all cases: NCI-60 cell line screen, 48 h

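How tested: cells in 96-well plates exposed to compound for 48 hours at five concentrations. At the TGI there is no net growth.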

On to `Cn1c2ccccc2c(=O)c2cccc(C(=O)NC(CCC(N)=O)C(=O)O)c21` (configuration not stated), for which the TGI in the assay with EKVX NSCLC, in the assay on HCT-116 colon, with HOP-62 NSCLC, in the assay on KM12 colon, with MOLT-4 leukemia and in the assay with SK-MEL-2 melanoma was > 100 µM throughout. The TGI in the assay with SK-OV-3 ovarian, in the assay on SNB-19 CNS and in the assay with SR leukemia was > 100 µM in each case.
As for `NC(=S)N/N=C\c1nccc2ccccc12`, the TGI is 2.21 µM in the assay with EKVX NSCLC; > 59.4 µM in the assay with HCT-116 colon; 4.56 µM in the assay with HOP-92 NSCLC; > 100 µM with KM12 colon; 0.827 µM in the assay with MOLT-4 leukemia; > 100 µM in the assay on SK-MEL-2 melanoma. In addition, the TGI with SK-OV-3 ovarian was 0.681 µM; in the assay on SNB-19 CNS, > 100 µM; with SR leukemia, 0.731 µM.
Turning to `CC1(C)CCC[C@]2(C)[C@H]3[C@H](C#N)c4cc(O)c(O)cc4O[C@@]3(C)CC[C@@H]12`, the TGI with EKVX NSCLC, in the assay on HOP-62 NSCLC, in the assay with HOP-92 NSCLC, with KM12 colon, with MOLT-4 leukemia and in the assay with SK-MEL-2 melanoma was > 10 µM throughout. Moreover, the TGI in the assay with SK-OV-3 ovarian, in the assay with SNB-19 CNS and in the assay on SR leukemia was > 10 µM each time.
For `OC(c1cc(C23CC4CC(CC(C4)C2)C3)nc2c(Cl)cc(Cl)cc12)C1CCCCN1` (configuration not stated), the TGI came to 3.59 µM with EKVX NSCLC; 2.7 µM in the assay on HCT-116 colon; 2.97 µM in the assay with HOP-62 NSCLC; 2.67 µM in the assay with HOP-92 NSCLC; 3.07 µM with KM12 colon; 3.57 µM with MOLT-4 leukemia. The results for the TGI in the assay on SK-MEL-2 melanoma and with SR leukemia were 3.46 µM and 2.84 µM, respectively.
With `Cc1cn(CC2=NCC(C)N2)c(=O)[nH]c1=O` (configuration not stated), the TGI in the assay with EKVX NSCLC, in the assay with HCT-116 colon, in the assay on HOP-62 NSCLC, in the assay on HOP-92 NSCLC, in the assay on MOLT-4 leukemia and in the assay on SK-MEL-2 melanoma was > 100 µM throughout. Further, the TGI in the assay on SK-OV-3 ovarian, in the assay with SNB-19 CNS and in the assay on SR leukemia was > 100 µM in each case.
On to `CC(=O)O[C@H]1C(=O)[C@@]2(C)C(C(OC(=O)c3ccccc3)C3[C@@H](O)C(OC(=O)[C@@H](O)[C@H](NC(=O)c4ccccc4)c4ccc(C(F)(F)F)cc4)C(C)=C1C3(C)C)[C@]1(OC(C)=O)CO[C@@H]1C[C@@H]2O` (some centres not stated), for which the TGI in the assay on EKVX NSCLC, with HCT-116 colon, with HOP-62 NSCLC, in the assay on MOLT-4 leukemia, in the assay on SK-MEL-2 melanoma and in the assay on SK-OV-3 ovarian was > 25 µM in each case. Further, the TGI with SNB-19 CNS and in the assay on SR leukemia was > 25 µM in each case.
`O=C(Nc1nc(C23CC4CC(CC(C4)C2)C3)cs1)c1cc2ccccc2oc1=O`: the TGI in the assay with EKVX NSCLC, in the assay on HCT-116 colon, with HOP-62 NSCLC, with HOP-92 NSCLC, in the assay with KM12 colon and in the assay with MOLT-4 leukemia was > 100 µM in each case. Also, the TGI with SNB-19 CNS and in the assay with SR leukemia was > 100 µM each time.
Regarding `C=C(Br)CNC(=O)CCC(=O)NCC(=C)Br`, the TGI with EKVX NSCLC, with HCT-116 colon, with HOP-62 NSCLC, in the assay with KM12 colon, in the assay with MOLT-4 leukemia and with SK-MEL-2 melanoma was > 100 µM throughout. For the same compound, the TGI in the assay with SK-OV-3 ovarian, with SNB-19 CNS and with SR leukemia was > 100 µM each time.
In the case of `Oc1ccc2c(c1)-c1c(c3ccccc3n1CCN1CCOCC1)CC2`, the TGI in the assay with EKVX NSCLC is > 100 µM; in the assay on HCT-116 colon, > 100 µM; in the assay with HOP-62 NSCLC, > 100 µM; in the assay with KM12 colon it was 51.3 µM; in the assay with MOLT-4 leukemia it was > 100 µM; in the assay with SK-MEL-2 melanoma, 69.4 µM. In addition, the results for the TGI in the assay on SK-OV-3 ovarian, in the assay with SNB-19 CNS and with SR leukemia were 85.2 µM, > 100 µM and > 100 µM, respectively.
Take `CC(C)/C(Cl)=N\OC(=O)Nc1cccc(Cl)c1`: the TGI was 31.7 µM in the assay on EKVX NSCLC; 36.2 µM with HCT-116 colon; > 86.1 µM with HOP-62 NSCLC; 31.6 µM in the assay with KM12 colon; 7.88 µM in the assay on MOLT-4 leukemia; 30 µM in the assay on SK-MEL-2 melanoma. Further, the TGI in the assay on SK-OV-3 ovarian is > 58.2 µM; with SNB-19 CNS, > 100 µM; in the assay on SR leukemia it was 7.22 µM.
As for `C=C1CCC([N+](=O)[O-])[C@](C)(N=O)CC[C@@H]2C1CC2(C)C` (some centres not stated), the TGI in the assay with EKVX NSCLC was 40.4 µM; in the assay on HCT-116 colon, 32.1 µM; in the assay with HOP-62 NSCLC, > 100 µM; in the assay on HOP-92 NSCLC, 44.9 µM; in the assay on KM12 colon, 65.5 µM; in the assay on MOLT-4 leukemia it was > 100 µM. For the same compound, the results for the TGI in the assay with SK-OV-3 ovarian, in the assay on SNB-19 CNS and with SR leukemia were > 100 µM, 77.9 µM and > 100 µM, respectively.
As to `CC(=O)C1CC[C@@H]2[C@H](CC[C@]3(C)[C@@H](O)CC[C@@H]23)[C@H]1C(=O)O` (some centres not stated), the TGI with EKVX NSCLC, with HOP-62 NSCLC, in the assay on HOP-92 NSCLC, with KM12 colon, with MOLT-4 leukemia and in the assay with SK-MEL-2 melanoma was > 100 µM throughout. For the same compound, the TGI in the assay with SK-OV-3 ovarian, with SNB-19 CNS and in the assay with SR leukemia was > 100 µM each time.
On to `CC(=O)c1cc2ccccc2oc1=O`, for which the TGI in the assay on EKVX NSCLC, in the assay with HCT-116 colon, with HOP-62 NSCLC, in the assay on HOP-92 NSCLC, in the assay with KM12 colon and in the assay on MOLT-4 leukemia was > 100 µM in each case. The TGI in the assay with SK-MEL-2 melanoma, with SNB-19 CNS and in the assay with SR leukemia was > 100 µM throughout.
Regarding `N#Cc1ccc(-n2c3ccccc3c3ccc4c(c32)C(=O)C=CC4=O)cc1`, the TGI is 5.58 µM in the assay with EKVX NSCLC; 7.19 µM with HCT-116 colon; 30.8 µM in the assay on HOP-62 NSCLC; 26.5 µM in the assay with KM12 colon; 28.9 µM in the assay on SK-MEL-2 melanoma; 27.3 µM in the assay with SK-OV-3 ovarian. For the same compound, the TGI came to 26.6 µM with SNB-19 CNS and 6.92 µM with SR leukemia.
